# From patent US20200216812A1, “IN VIVO METHOD FOR DIFFERENTIATING HUMAN PLURIPOTENT STEM CELLS INTO ATRIAL CARDIOMYOCYTES” (Ncardia B.V., priority 2016, published 2020)
# Tests used:
# Format in all cases: cell-based, human
# COUP-TFI = test: Qualitative immunoreactivity signal for COUP-TFI in hiPSC-derived cardiomyocytes (co-staining with alpha actinin); design: key: +++: Strongest immunoreactivity signal (i.e. fluorescence staining); ++: Moderate immunoreactivity signal (i.e. fluorescence staining); +: Lowest immunoreactivity signal (i.e. fluorescence staining); +/−: Marginal immunoreactivity signal (i.e. fluorescence staining) (i.e. very low signal, not consistently observed in all cells).; −: No immunoreactivity signal (i.e. fluorescence staining)
# Protocol: (§1) The purpose of this experiment was to determine the influence of retinoic acid (RA) (i.e. all-trans retinoic acid was used in the experiments below) on differentiation of hiPSC into atrial cardiomyocytes. Specifically, the influence of all-trans retinoic acid concentration (1 microM vs 10 microM) as well as the effect of timing/duration of retinoic acid application (i.e. d2-4 vs d3-d4 vs d2-18) were tested according to the following experimental scheme:
# (§2) The aqueous media consisted of the following composition: 46.5% IMDM (Gibco 21056), 0.25% Bovostar BSA, 46.5% Ham's F12 with Glutamax, 2 mM Glutamax, 450 nM alphaMTG, 0.05 mg/ml ascorbic acid, 0.5% 5000 U/ml Pen/Strep (Gibco 12070), 0.01% 1000* Trace elements mix B (Cellgro 99-176-CL), 0.1% 1000* Trace elements mix C (Cellgro 99-176-CL). The aqueous media was used in all four treatment groups, except that RA was added at different concentrations depending on the given treatment group, i.e. 10 microM for treatment group 1 and 2 and 1 microM for treatment groups 3 and 4.
# (§3) For all treatment groups, CHIR-99021 was used at a concentration of 5 microM.
# (§4) For all experimental groups, a combination of 5 microM of XAV-939 and 0.25 microM of IWP-L6 was used. Plating of hiPSC hiPSC were seeded in 12-well plates at density of 60.000 cells per well or a split ratio that was empirically determined to give 30-80% confluence after 4 days. Culture media was replaced after 4 days, in each treatment group, with a differentiation media as described in Table 1.
# (§5) Step a): The hiPSC were contacted with 5 microM of CHIR-99021 for a period of 48 hours. At the term of step a), the media was refreshed, i.e. replaced by a media devoid of CHIR-99021 and comprising 5 microM of XAV-939 and 0.25 microM of IWP-L6.
# (§6) Step b): Immediately after having refreshed the medium of step a), i.e. immediately after the 48 hours of step a) (which correspond to 2 days after having initiated step a), the cells were contacted with 5 microM of XAV-939 and 0.25 microM of IWP-L6 as well as with 10 microM of all trans retinoic acid. The cells were cultured in this media for 48 hours. At the term of step b), the media was refreshed with a media but devoid of CHIR-99021, XAV-939, and IWP-L6. The hiPSC-derived cardiomyocytes were further cultured until 14 days after initiating step a), after which they were harvested and submitted to immunohistochemical procedure for assessment of atrial phenotype (see example 3 below).
# (§7) Step b): Immediately after having refreshed the medium of step a), i.e. immediately after the 48 hours of step a), the cells were contacted with 5 microM of XAV-939 and 0.25 microM of IWP-L6. At 24 hours after initiating step b) (which corresponds to 3 days after having initiated step a), 10 microM of retinoic acid was added to the media of step b). […]
# COUP-TFII = test: Qualitative immunoreactivity signal for COUP-TFII in hiPSC-derived cardiomyocytes (co-staining with alpha actinin); design: key: +++: Strongest immunoreactivity signal (i.e. fluorescence staining); ++: Moderate immunoreactivity signal (i.e. fluorescence staining); +: Lowest immunoreactivity signal (i.e. fluorescence staining); +/−: Marginal immunoreactivity signal (i.e. fluorescence staining) (i.e. very low signal, not consistently observed in all cells).; −: No immunoreactivity signal (i.e. fluorescence staining)
# Protocol: as §1, §2, §3, §4, §5, §6, §7
# hiPSC = test: Differentiation of hiPSC into cardiomyocytes having an atrial phenotype (phenotype analysis, text summary); settings: for differentiation of hiPSC into atrial cardiomyocytes (immunoreactive signal for COUP-TF1 and/or COUP-TF1): 1 microM; for differentiation of hiPSC into cardiomyocytes having an atrial phenotype (immunoreactive signal for COUP-TF1 and/or COUP-TF1): 10 microM
# Protocol: as §1, §5, §6
# as §6, with “step” for “step a) (which correspond to 2 days after having initiated step”, “of IWP-L6. At 24 hours after initiating step b) (which corresponds to 3 days after having initiated step a),” for “of IWP-L6 as well as with”, “of” for “of all trans”, “retinoic acid was added to the media of step b).” for “retinoic acid.”, “for 24” for “for 48”
# as §7, with “1” for “10”, “b). The cells were cultured in this media for 24 hours. At the term of step b), the media was refreshed with a media but devoid of CHIR-99021, XAV-939, and IWP-L6.” for “b).”
# [1] = treatment group 1: 10 microM RA/d 2-4
# [2] = treatment group 2: 10 microM RA/d 3-4
# [3] = treatment group 3: 1 microM RA/d 3-4
# [4] = treatment group 4: 1 microM RA/d 2-14 + 4
compound,measurement,setting,value
"CC1=C(/C=C/C(C)=C/C=C/C(C)=C/C(=O)O)C(C)(C)CCC1 [RA, all-trans retinoic acid]",intensity of the immunoreactivity signal for COUP-TFI,COUP-TFI; [1],++
same,intensity of the immunoreactivity signal for COUP-TFI,COUP-TFI; [2],+
same,intensity of the immunoreactivity signal for COUP-TFI,COUP-TFI; [3],−
same,intensity of the immunoreactivity signal for COUP-TFI,COUP-TFI; [4],+/−
same,intensity of the immunoreactivity signal for COUP-TFII,COUP-TFII; [1],+++
same,intensity of the immunoreactivity signal for COUP-TFII,COUP-TFII; [2],++
same,intensity of the immunoreactivity signal for COUP-TFII,COUP-TFII; [3],−
same,intensity of the immunoreactivity signal for COUP-TFII,COUP-TFII; [4],+
same,differentiation of hiPSC into atrial cardiomyocytes (immunoreactive signal for COUP-TF1 and/or COUP-TF1),"hiPSC; added 2 days (48 hours) after initiating step a, duration 12 days (group 4)",low immunoreactive signal
same,differentiation of hiPSC into atrial cardiomyocytes (immunoreactive signal for COUP-TF1 and/or COUP-TF1),"hiPSC; added 3 days (72 hours) after initiating step a, duration 24 hours (group 3)",marginal or no immunoreactive signal
same,differentiation of hiPSC into cardiomyocytes having an atrial phenotype (immunoreactive signal for COUP-TF1 and/or COUP-TF1),"hiPSC; added 2 days (48 hours) after initiating step a, duration 48 hours (group 1)",strongest immunoreactive signal
same,differentiation of hiPSC into cardiomyocytes having an atrial phenotype (immunoreactive signal for COUP-TF1 and/or COUP-TF1),"hiPSC; added 3 days (72 hours) after initiating step a, duration 24 hours (group 2)",moderate immunoreactive signal
